Laboratory results from patent US4330529A, “Antibacterial composition” (Fujisawa Pharmaceutical Co., Ltd., priority 1979, dated 1982).

Legend:
Assay type in all cases: cell-based
[1] = test system: Proteus vulgaris IAM-1025; assay: MIC and FIC, Nutrient agar (Test 2); conditions: IAM1025, P. vulgaris IAM-1025, 20 h
Experimental: (§1) After the incubation was carried out at 37° C. for 20 hours, MIC values were determined.
(§2) FIC values and FIC Index were calculated in substantially the same manner as described in Test 1.

[2] = test system: Pseudomonas aeruginosa No.15; assay: MIC and FIC, Nutrient agar, multiple inoculator (Test 4); conditions: P. aeruginosa No.15, 10^8 cells/ml, 20 h
Experimental: as §1, §2

[3] = test system: Citrobacter freundii 63; assay: MIC and FIC, Nutrient agar (Test 9); conditions: C. freundii 63, 18 h
Experimental: as §2

[4] = test system: Escherichia coli 82; assay: MIC and FIC, Nutrient agar (Test 7); conditions: E. coli 82, 18 h
Experimental: as §2

[5] = test system: Salmonella enteritidis 1891; assay: MIC and FIC, Nutrient agar (Test 2); conditions: Salmonella enterica; S. enteritidis 1891; 20 h
Experimental: as §1

[6] = test system: Serratia marcescens 1421-4; assay: MIC and FIC, Nutrient agar (Tests 2, 3); conditions: Serratia marcescens, 14214, 20 h
[7] = test system: Proteus mirabilis 48; assay: MIC and FIC, Nutrient agar (Test 7); conditions: P. mirabilis 48, 18 h
Experimental: as §2

[8] = test system: Escherichia coli 1341-18R^+; assay: MIC and FIC, Nutrient agar (Test 3); conditions: 20 h
[9] = test system: Alcaligenes faecalis 1311-1; assay: MIC and FIC, Nutrient agar (Test 2); conditions: 13111, A. faecalis 1311-1, 20 h
Experimental: as §1, §2

[10] = test system: Staphylococcus aureus 3; assay: MIC and FIC, Nutrient agar (Tests 6, 7); conditions: Staphylococcus aureus; S. aureus 3; 18 h; read-out: MIC
Experimental: as §2

[11] = test system: Klebsiella pneumoniae NCTC 418; assay: MIC and FIC, Nutrient agar (Tests 2, 3); conditions: NCTC418, K. pneumoniae NCTC 418, 20 h
Experimental: as §1

[12] = test system: Pseudomonas aeruginosa No.14; assay: MIC and FIC, Nutrient agar, multiple inoculator (Test 4); conditions: P. aeruginosa No.14, 10^8 cells/ml, 20 h
Experimental: as §1, §2

Structure (SMILES): O=CN(O)CCCP(=O)(O)O [A (Table 2)]
- MIC [1]: 1.56 µg/mL
- MIC [2]: > 800 µg/mL
- MIC [3]: 50 µg/mL
- MIC [4]: 100 µg/mL
- MIC [5]: 0.78 µg/mL
- MIC [6]: 50 µg/mL
- MIC [7]: 25 µg/mL
- MIC [8]: 6.25 µg/mL
- MIC [9]: ≥ 400 µg/mL
- MIC [10]: 400 µg/mL
- MIC [11]: 25 µg/mL
- MIC [12]: 400 µg/mL
